Laboratory results taken from patent publication US20220280450A1, “PREVENTION AND TREATMENT OF CORONAVIRUS AND RELATED RESPIRATORY INFECTIONS” (PhilERA New Zealand Ltd., priority 2021, published 2022).
“And” between values parts separate entries of the source, which are not always exact repeats. Equal entries are not always repeated.

Key:
Pgp [1] = target: Pgp (Homo sapiens, UniProt P08183); conditions: PX811019 0.2 mM applied basolaterally
P-gp = assay: Permeability in Caco-2 barrier model; conditions: human
Description: (§1) Digoxin was used as marker to check for Pgp activity in the cultures. […] Samples were recovered from receptor compartments after 0, 15, 30, 45, 60, and 120 minutes, and further analyzed by liquid scintillation counting. Samples were also recovered a time 0 and 120 minutes from the donor compartments for mass balance evaluation. Each condition was performed in 3 replicated transwell filters in the presence of the Caco-2 barrier.

Pgp [2] = assay: Permeability in Caco-2 barrier model; conditions: human
Description: as §1

clinical [3] = conditions: human, in vivo
clinical [4] = conditions: human, in vivo; remark: listed apart in the source
[5] = human, in vivo
urinary copper excretion = conditions: in vivo, po
[6] = population mean (% CV in table)

Chain of Pgp (Homo sapiens, UniProt P08183) (P08183 whole entry): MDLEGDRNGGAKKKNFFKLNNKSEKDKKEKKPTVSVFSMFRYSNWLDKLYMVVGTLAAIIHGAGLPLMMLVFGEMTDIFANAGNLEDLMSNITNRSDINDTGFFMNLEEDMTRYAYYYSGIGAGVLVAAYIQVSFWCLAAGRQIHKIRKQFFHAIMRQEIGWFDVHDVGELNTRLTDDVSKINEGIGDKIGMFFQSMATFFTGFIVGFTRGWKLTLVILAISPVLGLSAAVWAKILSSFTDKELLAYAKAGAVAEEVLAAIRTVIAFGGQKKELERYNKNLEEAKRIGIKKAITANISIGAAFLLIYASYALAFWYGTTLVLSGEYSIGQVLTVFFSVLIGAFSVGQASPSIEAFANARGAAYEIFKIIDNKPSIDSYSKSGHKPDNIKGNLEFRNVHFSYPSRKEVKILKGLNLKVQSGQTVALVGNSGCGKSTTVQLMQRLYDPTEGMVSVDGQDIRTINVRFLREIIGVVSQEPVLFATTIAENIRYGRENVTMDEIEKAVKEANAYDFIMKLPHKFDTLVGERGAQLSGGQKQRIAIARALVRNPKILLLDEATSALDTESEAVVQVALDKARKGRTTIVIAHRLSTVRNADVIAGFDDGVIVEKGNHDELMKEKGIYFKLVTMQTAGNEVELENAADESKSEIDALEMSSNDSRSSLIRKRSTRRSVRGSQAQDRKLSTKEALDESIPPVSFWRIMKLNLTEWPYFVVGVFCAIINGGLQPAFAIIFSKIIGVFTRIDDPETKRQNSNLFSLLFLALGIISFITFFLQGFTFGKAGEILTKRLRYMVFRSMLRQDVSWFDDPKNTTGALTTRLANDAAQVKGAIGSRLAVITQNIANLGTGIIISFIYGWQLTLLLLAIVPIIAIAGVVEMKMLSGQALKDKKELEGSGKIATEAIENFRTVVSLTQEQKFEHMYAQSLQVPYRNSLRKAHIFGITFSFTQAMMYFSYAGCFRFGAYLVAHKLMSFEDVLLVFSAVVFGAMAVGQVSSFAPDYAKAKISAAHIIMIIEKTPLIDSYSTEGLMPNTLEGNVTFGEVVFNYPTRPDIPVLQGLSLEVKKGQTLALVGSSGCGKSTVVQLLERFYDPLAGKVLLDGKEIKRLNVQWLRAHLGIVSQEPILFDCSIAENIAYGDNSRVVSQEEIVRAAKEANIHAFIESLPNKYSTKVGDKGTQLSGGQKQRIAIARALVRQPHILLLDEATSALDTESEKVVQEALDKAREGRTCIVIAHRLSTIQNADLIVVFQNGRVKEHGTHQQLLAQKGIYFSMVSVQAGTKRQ

SMILES: C[C@H]1O[C@@H](O[C@H]2[C@@H](O)C[C@H](O[C@H]3[C@@H](O)C[C@H](O[C@H]4CC[C@@]5(C)[C@H](CC[C@@H]6[C@@H]5C[C@@H](O)[C@]5(C)[C@@H](C7=CC(=O)OC7)CC[C@]65O)C4)O[C@@H]3C)O[C@@H]2C)C[C@H](O)[C@@H]1O [Digoxin]
- Papp B-A of Digoxin in presence of PX811019 (Pgp [1]): 5.68±3.03×10^−6 cm/s
- efflux ratio (P-gp): 8.06
- Papp B→A (Pgp [2]): 6.08 ×10⁻⁶ cm/s

SMILES: CC(=O)NCCNCCNCCNC(C)=O [DAT, N1,N10-diacetyltriethylenetetramine]
- Inter-individual variability of CLD/F/frM/frD (estimate (% CV in table)): 55.9% and 55.9 (18.1) [1.5] %
- Inter-individual variability of VP,D/F/frM/frD (estimate (% CV in table)): 86.8% and 86.8 (29.4) [2.7] %
- Apparent volume for DAT, VP,D/F/frM/frD [6]: 197 L and 197 (17.7) L
- CL/F (clinical [3]): 5100 mL/min
- Tmax (clinical [4]): 5 to 6 h
- Cmax of DAT relative to MAT [5]: 3-4 fold lower

SMILES: CC(=O)NCCNCCNCCN [MAT, N1-acetyltriethylenetetramine]
- Inter-individual variability of CLM/F/frM (estimate (% CV in table)): 41.5% and 41.5 (15.1) [2.9] %
- Inter-individual variability of VP,M/F/frM (estimate (% CV in table)): 55.1% and 55.1 (17.4) [2.7] %
- Apparent volume for MAT, VP,M/F/frM [6]: 426 L and 426 (9.8) L
- Mean transit time for MAT formation [6]: 0.381 h and 0.381 (34.2) h
- CL/F (clinical [3]): 1270 mL/min

SMILES: NCCNCCNCCN.O=C(O)CCC(=O)O.O=C(O)CCC(=O)O [PX811019, triethylenetetramine disuccinate]
- Level of cupriuresis versus dose (urinary copper excretion): approximately the same at 435 and 1305 mg PX811019 and increased at the highest dose of 2175 mg
- Tmax (clinical [4]): 1.25 to 2 h

SMILES: NCCNCCNCCN [TETA, triethylenetetramine]
- Increase of model predicted VT,T/F for every 100 mg difference from the 750 mg dose (human, in vivo): 6.37%
- Inter-individual variability of SL · ER0 (in vivo): 58.1% and 58.1 (25.1) [7.8] %
- Slope (SL) of copper excretion versus TETA concentration (in vivo): 41.8 (mg/L)^−1
- CL/F (clinical [3]): 2350 mL/min
